The source of these data is US20240368125A1, “NOVEL PYRAZINYL-TRIAZOLE COMPOUNDS AS PESTICIDES” (Bayer Aktiengesellschaft, priority 2021, published 2024).

Common to all, as to assay type: in vivo
Assay [1] deals with adult Blattella germanica strain PAULINIA
As to the kind of experiment: Blattella germanica test (BLTTGE surface treatment & contact assay). The note with it: 24 hours after contact, read-out: efficacy (mortality); for mortality at 4 mg/m2: surface concentration 4 mg/m^2, 30 min exposure; for mortality at 20 mg/m2: surface concentration 20 mg/m^2, 30 min exposure. How it is done:
Blattella germanica Test (BLTTGE Surface Treatment & Contact Assay
(§1) Solvent: Aceton+2000 ppm rapeseed oil methyl ester (RME)
In order to produce a sufficient, active ingredient containing solution it is necessary to solve the test compound in the solvent-mix (acetone at 2 mg/ml/RME 2000 ppm). This solution is pipetted onto a glazed tile and after evaporation of the acetone, adult animals of the species Blattella germanica strain PAULINIA are placed onto the dried surface. The exposure time is 30 minutes.
Mortality in percent (%) is determined 24 hours after contact of the insects to the treated surface. 100% mortality means that all tested insects are dead, whereas 0% means that no insect died.

The subject of assay [2] is adult brown dog ticks (Rhipicephalus sanguineus). Nature of the assay: Rhipicephalus sanguineus in-vitro contact test, adult brown dog ticks. As to conditions: Rhipicephalus sanguineus; 1 μg/cm^2 (=100 g/ha), after 48 hours; read-out: efficacy (ticks dead or moribund). In a few lines:
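Acetone solution (900 ppm giving 5 μg/cm²) coated on inner walls of glass tubes; after drying, 5-10 adult ticks added and held at room temperature 48 h. Ticks then placed on 45-50 °C plate ≤5 min; those unable to climb away scored dead/moribund, efficacy as % affected.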

Assay [3] concerns fall armyworm larvae (Spodoptera frugiperda). As to the kind of experiment: Spodoptera frugiperda spray test (SPODFR). As to conditions: 168 h; for mortality at 100 g/ha: in Zea mays. In a few lines: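 Compound in acetone/dimethylformamide, diluted with water containing 1000 ppm alkylarylpolyglycol ether emulsifier. Maize leaf sections sprayed, dried, then infested with fall armyworm larvae. Mortality (%) scored after 7 days, 100% meaning all caterpillars killed.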

The subject of assay [4] is Rhipicephalus (Boophilus) microplus larvae (strain Parkhurst, resistant against synthetic pyrethroids). Nature of the assay: Rhipicephalus (Boophilus) microplus in-vitro contact test, larval cattle tick. The note with it: Rhipicephalus microplus; 1 μg/cm^2 (=100 g/ha), after 48 hours; read-out: efficacy (larvae dead or moribund). The procedure, abridged: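 Compound in acetone coated on glass tube inner walls; 900 ppm solution gives 5 μg/cm^2. Pyrethroid-resistant Parkhurst larvae (20-50 per tube) held at 27° C., 85% relative humidity; efficacy assessed after 48 h by scoring negative geotactic behavior after tapping larvae to tube bottom.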

Assay [5] deals with adult mosquitoes Culex quinquefasciatus strain P00. As to the kind of experiment: Culex quinquefasciatus test (CULXFA surface treatment & contact assay). As to conditions: 24 hours after contact, read-out: efficacy (mortality); for mortality at 4 mg/m2: surface concentration 4 mg/m^2, 30 min exposure; for mortality at 20 mg/m2: surface concentration 20 mg/m^2, 30 min exposure. How it is done: Culex quinquefasciatus Test (CULXFA Surface Treatment & Contact Assay
as §1
In order to produce a sufficient, active ingredient containing solution it is necessary to solve the test compound in the solvent-mix (acetone at 2 mg/ml/RME 2000 ppm). This solution is pipetted onto a glazed tile and after evaporation of the acetone, adult mosquitoes of the species Culex quinquefasciatus strain P00 are placed onto the dried surface. The exposure time is 30 minutes. Mortality in percent (%) is determined 24 hours after contact of the insects to the treated surface. 100% mortality means that all tested insects are dead, whereas 0% means that no insect died.

The subject of assay [6] is larvae of the banded cucumber beetle (Diabrotica balteata). As to the kind of experiment: Diabrotica balteata spray test. As to conditions: Diabrotica balteata, 168 h; 100 g/ha (=32 μg/well), wheat seeds, after 7 days; read-out: efficacy (seedlings grown). In a few lines:
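Germinated wheat seedlings (5 per well, on agar) sprayed with compound in acetone/DMF with emulsifier-containing water, then infested with 10–20 Diabrotica balteata larvae. Efficacy (%) scored after 7 days from seedling growth: 100% = growth as untreated uninfested control, 0% = no seedlings grown.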

Assay [7] relates to adult mosquitoes Aedes aegypti strain MONHEIM. Nature of the assay: Aedes aegypti test (AEDSAE surface treatment & contact assay). As to conditions: 24 hours after contact, read-out: efficacy (mortality); for mortality at 4 mg/m2: surface concentration 4 mg/m^2, 30 min exposure; for mortality at 20 mg/m2: surface concentration 20 mg/m^2, 30 min exposure. How it is done: Aedes aegypti Test (AEDSAE Surface Treatment & Contact Assay
as §1
In order to produce a sufficient, active ingredient containing solution it is necessary to solve the test compound in the solvent-mix (acetone at 2 mg/ml/RME 2000 ppm). This solution is pipetted onto a glazed tile and after evaporation of the acetone, adult mosquitoes of the species Aedes aegypti strain MONHEIM are placed onto the dried surface. The exposure time is 30 minutes. Mortality in percent (%) is determined 24 hours after contact of the insects to the treated surface. 100% mortality means that all tested insects are dead, whereas 0% means that no insect died.

For assay [8], the system named is adult engorged female ticks (Rhipicephalus microplus). Nature of the assay: Rhipicephalus (Boophilus) microplus injection test. As to conditions: 4 μg/tick, after 7 days. The procedure:
Rhipicephalus (Boophilus) Microplus—Injection Test
Solvent: Dimethyl Sulfoxide
To produce a suitable preparation of active compound, 10 mg of active compound are dissolved in 0.5 mL solvent, and the concentrate is diluted with solvent to the desired concentration.
Five adult engorged female ticks (Rhipicephalus microplus) are injected with 1 μL compound solution into the abdomen. The ticks are transferred into replica plates and incubated in a climate chamber.
After 7 days egg deposition of fertile eggs is monitored. Eggs where fertility is not visible are stored in a climate chamber till hatching after about 42 days. An efficacy of 100% means all eggs are infertile; 0% means all eggs are fertile.

On to `CNC(=O)c1cnc(-n2ncnc2[C@H](C)NC(=O)c2cc(OC(F)(F)F)cc(C3CC3)c2)cn1` [Example I-021], for which the mortality at 4 mg/m2 in assay [1], in assay [5] and in assay [7] was 80 to 100% throughout. Moreover, the mortality at 20 mg/m2 in assay [1], in assay [5] and in assay [7] was 80 to 100% throughout. Moreover, in assay [2], the pest or weed control at 1 µg/cm2, 100 g/ha came to 100%. For the same compound, the mortality at 100 g/ha in assay [3] was 100%. In assay [4], the pest or weed control at 1 µg/cm2 was found to be 100%. Besides, the pest or weed control at 32 µg/disc, 100 g/ha in assay [6] was determined as 100%.

Take `C[C@H](NC(=O)c1cc(OC(F)(F)F)cc(C2CC2)c1)c1ncnn1-c1cnc(C(=O)N(C)C)cn1` [Example I-002]: the mortality at 20 mg/m2 in assay [1], in assay [5] and in assay [7] was 80 to 100% each time. Moreover, in assay [2], the pest or weed control at 1 µg/cm2, 100 g/ha is 100%. Moreover, the Emax at 4 g/ha in assay [3] (SPODFR, 4 g ai/ha, 7 dat, read-out: % Efficacy) worked out at 100%. Also, in assay [3] (SPODFR, 20 g ai/ha, 7 dat, read-out: % Efficacy), the Emax at 20 g/ha amounted to 100%. The Emax at 100 g/ha in assay [3] (SPODFR, 100 g ai/ha, 7 dat, read-out: % Efficacy) was 100%. Also, in assay [3], the mortality at 100 g/ha was 100%. Moreover, in assay [8], the “efficacy (infertile eggs)” value was found to be 100%. For the same compound, the pest or weed control at 1 µg/cm2 in assay [4] was determined as 100%. Besides, the pest or weed control at 32 µg/disc, 100 g/ha in assay [6] is 100%. Besides, in assay [7], the mortality at 4 mg/m2 is 80 to 100%.

For `CNC(=O)c1cnc(-n2ncnc2[C@H](C)NC(=O)c2cc(C(F)(F)F)cc(C(F)(F)F)c2)cn1` [Example I-009], the mortality at 4 mg/m2 in assay [1], in assay [5] and in assay [7] was 80 to 100% in each case. Moreover, the mortality at 20 mg/m2 in assay [1], in assay [5] and in assay [7] was 80 to 100% each time. For the same compound, the pest or weed control at 1 µg/cm2, 100 g/ha in assay [2] came to 100%. The compound also displayed a mortality at 100 g/ha in assay [3] of 100%. In assay [8], the “efficacy (infertile eggs)” value is recorded as 100%. Besides, in assay [4], the pest or weed control at 1 µg/cm2 worked out at 100%.

Regarding `C[C@H](NC(=O)c1cc(C(F)(F)F)cc(C(F)(F)F)c1)c1ncnn1-c1cnc(C(=O)N(C)CC2CC2)cn1` [Example I-008], the mortality at 4 mg/m2 in assay [1], in assay [5] and in assay [7] was 80 to 100% in each case. In addition, the mortality at 20 mg/m2 in assay [1], in assay [5] and in assay [7] was 80 to 100% throughout. Moreover, the pest or weed control at 1 µg/cm2, 100 g/ha in assay [2] is 100%. In assay [3], this compound showed a mortality at 100 g/ha of 100%. Also, the “efficacy (infertile eggs)” value in assay [8] came to 100%. In addition, the pest or weed control at 1 µg/cm2 in assay [4] came out at 100%. Moreover, the pest or weed control at 32 µg/disc, 100 g/ha in assay [6] amounted to 100%.

On to `C[C@H](NC(=O)c1cc(C(F)(F)F)cc(C(F)(F)F)c1)c1ncnn1-c1cnc(C(=O)N(C)C2CC2)cn1` [Example I-007], for which the mortality at 4 mg/m2 in assay [1], in assay [5] and in assay [7] was 80 to 100% throughout. Moreover, the mortality at 20 mg/m2 in assay [1], in assay [5] and in assay [7] was 80 to 100% throughout. Further, the pest or weed control at 1 µg/cm2, 100 g/ha in assay [2] is 100%. The mortality at 100 g/ha in assay [3] is 100%. Moreover, the “efficacy (infertile eggs)” value in assay [8] is recorded as 100%. For the same compound, the pest or weed control at 1 µg/cm2 in assay [4] was found to be 100%. Moreover, in assay [6], the pest or weed control at 32 µg/disc, 100 g/ha was determined as 100%.
